Reference: US8115005B2, “Pyrazolylphenyl and pyrrolylphenyl inhibitors of LTA4H for treating inflammation” (Decode Genetics EHF., priority 2006, dated 2012)
Where a name gives a salt, the structure may show the parent alone.

Molecular target: T1, LTA4H (Rattus norvegicus, UniProt P30349)
T1 construct: and in rat peritoneum in vivo; host or cells: rat peritoneum (in vivo, after oral dosing)
T1 sequence (P30349 1-611): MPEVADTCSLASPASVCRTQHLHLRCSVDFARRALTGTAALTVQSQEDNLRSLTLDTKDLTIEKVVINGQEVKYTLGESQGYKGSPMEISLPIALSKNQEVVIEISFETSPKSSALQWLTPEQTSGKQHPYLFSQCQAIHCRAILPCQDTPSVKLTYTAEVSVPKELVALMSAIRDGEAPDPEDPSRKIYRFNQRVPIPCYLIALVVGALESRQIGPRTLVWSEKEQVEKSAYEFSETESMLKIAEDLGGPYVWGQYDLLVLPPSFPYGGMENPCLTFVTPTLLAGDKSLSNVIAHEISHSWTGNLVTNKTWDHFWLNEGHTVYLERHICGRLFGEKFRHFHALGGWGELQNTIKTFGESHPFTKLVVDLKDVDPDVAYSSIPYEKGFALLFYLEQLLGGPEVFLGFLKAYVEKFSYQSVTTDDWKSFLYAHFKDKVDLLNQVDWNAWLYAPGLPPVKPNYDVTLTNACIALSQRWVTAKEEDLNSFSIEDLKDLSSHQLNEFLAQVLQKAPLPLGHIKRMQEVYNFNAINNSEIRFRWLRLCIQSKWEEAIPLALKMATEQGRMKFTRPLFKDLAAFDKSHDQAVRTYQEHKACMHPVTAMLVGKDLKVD
Assay: not given
Settings: oral administration, rat peritoneum in vivo; cited from earlier work

Compound	inhibition of ionophore-induced LTB4 production
CN(CCCOc1ccc(Cc2ccccc2)cc1)CCC(=O)O.Cl [SC57461]	inhibition of ionophore-induced LTB4 production

Molecular target: T2, recombinant human LTA4 hydrolase (Homo sapiens, UniProt P09960)
T2 construct: A human LTA4 hydrolase full-length cDNA clone (NM_000895) was purchased from OriGene Technologies; own knowledge that pDEST17 adds an N-terminal 6xHis, consistent with the Ni-NTA purification) (N); made in house; host or cells: Escherichia coli BL21-AI
T2 sequence (P09960 1-611): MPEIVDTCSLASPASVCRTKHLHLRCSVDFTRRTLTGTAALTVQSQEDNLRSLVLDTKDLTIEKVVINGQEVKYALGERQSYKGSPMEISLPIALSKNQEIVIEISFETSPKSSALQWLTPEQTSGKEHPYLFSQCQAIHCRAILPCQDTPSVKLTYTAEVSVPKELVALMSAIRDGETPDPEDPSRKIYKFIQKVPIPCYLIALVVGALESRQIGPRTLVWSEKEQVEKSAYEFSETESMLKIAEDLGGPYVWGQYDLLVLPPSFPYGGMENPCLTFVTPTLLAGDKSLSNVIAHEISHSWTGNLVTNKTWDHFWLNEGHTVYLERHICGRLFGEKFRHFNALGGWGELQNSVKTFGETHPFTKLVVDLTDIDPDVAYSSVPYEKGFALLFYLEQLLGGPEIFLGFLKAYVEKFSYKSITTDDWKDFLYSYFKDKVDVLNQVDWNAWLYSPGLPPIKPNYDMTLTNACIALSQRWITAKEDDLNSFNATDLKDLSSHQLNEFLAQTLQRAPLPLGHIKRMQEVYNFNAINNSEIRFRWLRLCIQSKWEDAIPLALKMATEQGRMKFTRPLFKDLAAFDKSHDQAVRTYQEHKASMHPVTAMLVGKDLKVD
Assay: In vitro assay testing inhibitory activity against purified recombinant human LTA4 hydrolase
Format: biochemical
Settings: LTB4 formation; table does not say which of the two described assays (enzyme or human whole blood)
Text: (1) In vitro assay testing inhibitory activity against purified recombinant human LTA4 hydroase. A human LTA4 hydrolase full-length cDNA clone (NM_000895) was purchased from OriGene Technologies (Rockville, Md.). The gene was amplified by polmerase chain reaction and transferred via pDONR201 into the bacterial expression vector pDEST17 by recombination (both plasmids from Invitrogen, Carlsbad, Calif.). The resulting construct was transformed into Escherichia coli BL21-AI (Invitrogen), and expression was induced by chemical induction with arabinose. The recombinant enzyme was purified by chromatography on an FPLC system (Amersham Biosciences, Uppsala, Sweden) using immobilized metal affinity chromatography (Ni-NTA Superflow, Qiagen, Hilden, Germany) and anion exchange chromatography (MonoQ HR 10/10, Amersham Biosciences).
The compounds of the invention were incubated in a series of dilutions with 200 nM of recombinant enzyme in assay buffer (100 mM Tris-HCl, 100 mM NaCl, 5 mg/ml fatty-acid free BSA, 10% DMSO, pH 8.0) for 10 min at room temperature to allow binding between LTA4 hydrolase and the inhibitors. LTA4 was prepared by alkaline hydrolysis of LTA4 methyl ester (Biomol, Plymouth Meeting, Pa., or Cayman Chemicals, Ann Arbor, Mich.). A solution of 10 μg of the ester was dried under a nitrogen stream and redissolved in 60 μl of a solution of 80% acetone and 20% 0.25 M NaOH. After incubation for 40 min at room temperature the resulting approximately 500 μM tock of LTA4 was kept at −80° C. for no more than a few days prior to use.
Immediately before the assay, LTA4 was diluted to a concentration of 10 μM in assay buffer (without DMSO) and added to the reaction mixture to a final concentration of 2 μM to initiate the enzyme reaction. After incubation for 120 sec at room temperature, the reaction was stopped by adding 2 volumes of chilled quenching buffer, containing acetonitril with 1% acetic acid and 225 nM LTB4-d4 (Biomol). The samples were then kept at 4° C. overnight to complete protein precipitation and centrifuged for 15 min at 1800 g. LTB4 formed was measured by LC-MS/MS using LTB4-d4 as an internal standard and an external LTB4 standard (Biomol) as reference. Based on the amounts of LTB4 found at each inhibitor concentration, a dose-response curve was fitted to the data and an IC50 value was calculated.

Compound	IC50
FC(F)(F)c1ccnn1-c1ccc(OCCN2CCCCC2)cc1 [Example 4, 1-{2-[4-(5-Trifluoromethyl-pyrazol-1-yl)-phenoxy]-ethyl}-piperidine]	5 to 20 µM
Cc1c(C(F)F)cnn1-c1ccc(OCCN2CCCCC2)cc1 [Example 6, 1-{2-[4-(4-Difluoromethyl-5-methyl-pyrazol-1-yl)-phenoxy]-ethyl}-piperidine]	5 to 20 µM
c1ccn(-c2ccc(OC[C@H]3CCCN3)cc2)c1 [Example 7, 1-[4-((R)-1-Pyrrolidin-2-ylmethoxy)-phenyl]-1H-pyrrole hydrochloride]	< 5 µM

Now from value to compound:

IC50	Compound
5 to 20 µM	c1cnn(-c2ccc(OCCN3CCCCC3)cc2)c1 [Example 1, 1-[2-(4-Pyrazol-1-yl-phenoxy)-ethyl]-piperidine]
5 to 20 µM	Cc1ccn(-c2ccc(OCCN3CCCCC3)cc2)n1 [Example 2, 1-{2-[4-(3-Methyl-pyrazol-1-yl)-phenoxy]-ethyl}-piperidine]
< 5 µM	Cc1cc(C)n(-c2ccc(OCCN3CCCCC3)cc2)n1 [Example 3, 1-{2-[4-(3,5-Dimethyl-pyrazol-1-yl)-phenoxy]-ethyl}-piperidine]
< 5 µM	Cc1cc(C(F)(F)F)n(-c2ccc(OCCN3CCCCC3)cc2)n1 [Example 5, 1-{2-[4-(3-Methyl-5-trifluoromethyl-pyrazol-1-yl)-phenoxy]-ethyl}-piperidine]
< 5 µM	c1ccn(-c2ccc(OCCN3CCCCC3)cc2)c1 [Example 8, 1-[2-(4-Pyrrol-1-yl-phenoxy)-ethyl]-piperidine]
< 5 µM	Brc1cccn1-c1ccc(OCCN2CCCCC2)cc1 [Example 9, 1-{2-[4-(2-Bromo-pyrrol-1-yl)-phenoxy]-ethyl}-piperidine]
< 5 µM	O=Cc1cccn1-c1ccc(OCCN2CCCCC2)cc1 [Example 10, 1-[4-(2-Piperidin-1-yl-ethoxy)-phenyl]-1H-pyrrole-2-carbaldehyde]

Molecular target: T3, LTA4H (Mus musculus, UniProt P24527)
T3 construct: host or cells: mouse blood (ex vivo, after oral dosing)
T3 sequence (P24527 1-611): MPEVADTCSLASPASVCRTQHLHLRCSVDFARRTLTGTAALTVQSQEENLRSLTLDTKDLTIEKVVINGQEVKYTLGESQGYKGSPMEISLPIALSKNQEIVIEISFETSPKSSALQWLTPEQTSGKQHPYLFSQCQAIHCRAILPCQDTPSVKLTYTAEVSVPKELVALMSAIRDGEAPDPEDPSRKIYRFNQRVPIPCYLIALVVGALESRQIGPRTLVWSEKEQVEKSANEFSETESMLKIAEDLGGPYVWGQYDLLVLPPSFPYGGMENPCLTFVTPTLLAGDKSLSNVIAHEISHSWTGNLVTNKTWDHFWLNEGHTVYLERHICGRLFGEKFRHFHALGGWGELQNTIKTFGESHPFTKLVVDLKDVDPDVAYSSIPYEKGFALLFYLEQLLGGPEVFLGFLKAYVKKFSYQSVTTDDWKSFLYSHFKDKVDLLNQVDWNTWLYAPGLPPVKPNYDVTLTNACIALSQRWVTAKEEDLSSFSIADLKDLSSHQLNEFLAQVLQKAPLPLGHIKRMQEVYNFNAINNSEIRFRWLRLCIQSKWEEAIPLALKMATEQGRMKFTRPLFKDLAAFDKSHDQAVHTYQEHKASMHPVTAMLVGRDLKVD
Assay: not given
Settings: oral administration, mouse blood ex vivo; cited from earlier work

Compound	inhibition of ionophore-induced LTB4 production
CN(CCCOc1ccc(Cc2ccccc2)cc1)CCC(=O)O.Cl [SC57461]	inhibition of ionophore-induced LTB4 production

Test system: colitis symptoms
Assay: not given
Settings: eight weeks of treatment, primate model of spontaneous colitis; cited from earlier work

Compound	colitis symptoms
CN(CCCOc1ccc(Cc2ccccc2)cc1)CCC(=O)O.Cl [SC57461]	significantly improved colitis symptoms
